Data as given in patent US5795907A, “Gastin and CCK receptor ligands” (James Black Foundation Limited, priority 1994, dated 1998).

Key:
gastrin = target: T1, gastrin (Rattus norvegicus, UniProt P30553); assay: gastrin antagonist activity in an immature rat stomach assay (pentagastrin-stimulated acid secretion); settings: cumulative pentagastrin dose-response curves after 60 min with drug; for Kb: read-out: Gastrin pKB (converted)
T1 construct: The stomach was lowered into a jacketed organ bath containing 40 ml of buffered solution; from tissue; host or cells: isolated perfused whole stomach of immature rats (ca. 21 days old)
T1 sequence (P30553 1-452): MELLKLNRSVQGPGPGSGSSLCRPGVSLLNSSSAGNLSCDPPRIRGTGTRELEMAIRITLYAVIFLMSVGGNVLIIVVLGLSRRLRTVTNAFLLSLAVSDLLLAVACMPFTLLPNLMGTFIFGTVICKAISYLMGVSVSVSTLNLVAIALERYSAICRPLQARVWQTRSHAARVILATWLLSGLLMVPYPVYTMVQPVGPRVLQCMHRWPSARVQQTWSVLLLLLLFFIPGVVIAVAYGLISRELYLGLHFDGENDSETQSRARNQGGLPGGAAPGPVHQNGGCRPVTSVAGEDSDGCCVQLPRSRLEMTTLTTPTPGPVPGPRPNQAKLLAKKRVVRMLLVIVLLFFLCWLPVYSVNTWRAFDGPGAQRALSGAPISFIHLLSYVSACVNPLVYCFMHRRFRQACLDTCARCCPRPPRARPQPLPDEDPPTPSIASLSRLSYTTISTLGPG
Procedure, shortened: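 Isolated lumen-perfused immature rat stomach (33-50 g, ca. 21 days) in 37° organ bath with 3×10^-8 M 5-methylfurmethide; acid secretion read by pH electrode in perfusate. Compound added to serosal bath after 120 min stabilisation; cumulative pentagastrin dose-response curves begun 60 min later and analysed by the Black et al. method.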

CCKB receptor = target: T2, CCKB receptor (Mus musculus, UniProt P56481); assay: CCKB receptor radioligand binding assay in mouse cortical membranes ([125I]-CCK8S); settings: [125I]-CCK8S 200 pM, 150 min at 21±3°; for Ki: read-out: CCKB pKi (converted)
T2 construct: The cortex was dissected, weighed and homogenised in 40ml ice-cold buffer; tissue Charles River (supplier of the CD1 mice); host or cells: cerebral cortex membranes of male CD1 mice
T2 sequence (P56481 1-453): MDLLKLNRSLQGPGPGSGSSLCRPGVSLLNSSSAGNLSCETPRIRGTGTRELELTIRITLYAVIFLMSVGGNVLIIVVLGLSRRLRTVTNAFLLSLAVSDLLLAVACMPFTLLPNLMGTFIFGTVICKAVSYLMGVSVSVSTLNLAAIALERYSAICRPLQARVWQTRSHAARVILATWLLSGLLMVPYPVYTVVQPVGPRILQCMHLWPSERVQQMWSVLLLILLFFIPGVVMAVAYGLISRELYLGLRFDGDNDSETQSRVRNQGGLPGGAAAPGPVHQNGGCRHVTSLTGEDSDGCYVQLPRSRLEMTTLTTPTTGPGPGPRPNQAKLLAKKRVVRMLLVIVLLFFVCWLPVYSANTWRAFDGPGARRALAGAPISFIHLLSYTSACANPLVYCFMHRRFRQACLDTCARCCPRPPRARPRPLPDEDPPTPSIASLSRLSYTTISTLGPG
Procedure, shortened: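 This was competition binding with tracer [125I]-CCK8S (200 pM solution added), run for 150 min at 21±3° on male CD1 mouse cortex membranes in pH 7.2 HEPES buffer with bacitracin. Filtration then gamma counting gave bound radioactivity. L-365,260 set the non-specific level.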

CCKA = target: T3, CCKA (Cavia porcellus, UniProt Q63931); assay: CCKA radioligand binding assay in guinea-pig pancreas membranes ([125I]-CCK8(S)); settings: PD134,308 present, 150 minutes at 21±3°; for Ki: read-out: CCKA pKi (converted)
T3 construct: The pancreatata were homogenised in 40 ml ice-cold HEPES buffer using a polytron; from tissue; host or cells: pancreas membranes of male Dunkin Hartley guinea-pigs
T3 sequence (Q63931 1-430): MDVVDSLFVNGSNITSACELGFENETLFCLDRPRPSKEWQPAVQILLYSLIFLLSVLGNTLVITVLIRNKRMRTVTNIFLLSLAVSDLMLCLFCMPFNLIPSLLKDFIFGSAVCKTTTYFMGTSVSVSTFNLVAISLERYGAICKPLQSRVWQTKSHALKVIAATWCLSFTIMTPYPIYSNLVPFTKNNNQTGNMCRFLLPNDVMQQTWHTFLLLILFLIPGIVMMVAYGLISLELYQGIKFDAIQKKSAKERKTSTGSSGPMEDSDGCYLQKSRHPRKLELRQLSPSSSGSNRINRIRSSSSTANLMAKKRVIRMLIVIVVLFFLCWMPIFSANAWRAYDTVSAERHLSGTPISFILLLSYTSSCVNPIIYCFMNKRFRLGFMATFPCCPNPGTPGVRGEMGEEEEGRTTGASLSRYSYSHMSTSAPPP
Procedure, shortened: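 Competition for [125I]-CCK8(S) (added as […] solution) ran for 150 min at 21±3° in HEPES pH 7.2. Membranes came from male guinea-pig pancreas at 1 mg/ml original wet weight, with 0.375 μM PD134,308 in the suspension. Filter-bound counts were gamma-counted; 100 nM L-364,718 (added solution) defined non-specific binding.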

Structure (SMILES) | Kb (gastrin) [nM] | Ki (CCKB receptor) [nM] | Ki (CCKA) [nM] | Gastrin pKB (gastrin) | CCKB pKi (CCKB receptor) | CCKA pKi (CCKA)
O=C(O)CNC(=O)[C@H]1CCCN1C(=O)c1cc2[nH]cnc2cc1C(=O)NCC12CC3CC(CC(C3)C1)C2 [Example 76, 5-(2R-carboxymethylaminocarbonylpyrrolidino-carbonyl)-6-(1-adamantanemethylaminocarbonyl)-benzimidazole] | 126 | 631 | > 10000 | – | – | –
O=C(O)c1cc(NC(=O)[C@@H]2CCCN2C(=O)c2cc3[nH]cnc3cc2C(=O)NCC23CC4CC(CC(C4)C2)C3)cc(C(=O)O)c1 [Example 77, 5-(2S-(3,5-dicarboxyphenylaminocarbonyl)-pyrrolidinocarbonyl)-6-(1-adamantanemethylaminocarbonyl)-benzimidazole] | 100 | 251 | > 10000 | – | – | –
O=C(O)c1ccc(C(=O)O)c(NC(=O)[C@H](Cc2ccccc2)NC(=O)c2cc3[nH]cnc3cc2C(=O)NCC23CC4CC(CC(C4)C2)C3)c1 [Example 78, 5-(1S-(2,5-dicarboxyphenylaminocarbonyl)-2-phenylethylaminocarbonyl)-6-(1-adamantanemethylaminocarbonyl)-benzimidazole] | – | – | – | 8.6 | 7.3 | 5.3
O=C(O)c1cccc(NC(=O)[C@H](Cc2ccccc2)NC(=O)c2cc3[nH]cnc3cc2C(=O)NCC23CC4CC(CC(C4)C2)C3)c1 [Example 79, 5-(1S-(3-carboxyphenylaminocarbonyl)-2-phenylethylaminocarbonyl)-6-(1-adamantanemethylaminocarbonyl)-benzimidazole] | 100 | 20 | 1000 | – | – | –
O=C(NCC12CC3CC(CC(C3)C1)C2)c1cc2nc[nH]c2cc1C(=O)N[C@@H](Cc1ccccc1)C(=O)Nc1cc(-c2nn[nH]n2)cc(-c2nn[nH]n2)c1 [Example 80, 5-(1S-(3,5-ditetrazolylphenylaminocarbonyl)-2-phenylethylaminocarbonyl)-6-(1-adamantanemethylaminocarbonyl)-benzimidazole] | 6.31 | 3.98 | 794 | – | – | –
COC(=O)c1cc(NC(=O)[C@H](Cc2ccccc2)NC(=O)c2cc3[nH]cnc3cc2C(=O)NCC23CC4CC(CC(C4)C2)C3)cc(C(=O)OC)c1 [Example 81, 5-(1S-(3,5-dimethoxycarbonylphenylaminocarbonyl)-2-phenylethylaminocarbonyl)-6-(1-adamantane-methylaminocarbonyl)-benzimidazole] | 126 | 794 | 3160 | – | – | –
Cc1ccc(C(=O)O)cc1NC(=O)[C@H](Cc1ccccc1)NC(=O)c1cc2[nH]cnc2cc1C(=O)NCC12CC3CC(CC(C3)C1)C2 [Example 82, 5-(1S-(2-methyl-5-carboxyphenylaminocarbonyl)-2-phenylethylaminocarbonyl)-6-(1-adamantanemethylaminocarbonyl)-benzimidazole] | 126 | 100 | 2000 | – | – | –
O=C(NCC12CC3CC(CC(C3)C1)C2)c1cc2nc[nH]c2cc1C(=O)N[C@@H](Cc1ccccc1)C(=O)Nc1cccc(-c2nn[nH]n2)c1 [Example 83, 5-(1S-(3-tetrazolylphenylaminocarbonyl)-2-phenylethylaminocarbonyl)-6-(1-adamantanemethylaminocarbonyl)-benzimidazole] | 63.1 | 15.8 | 398 | – | – | –
CN(C(=O)c1cc2[nH]cnc2cc1C(=O)NCC12CC3CC(CC(C3)C1)C2)[C@@H](Cc1ccccc1)C(=O)Nc1cc(C(=O)O)cc(C(=O)O)c1 [Example 86, 5-(1S-(3,5-dicarboxyphenylaminocarbonyl)-2-30 phenylethyl-(N-methylamino)-carbonyl)-6-(1-adamantanemethylaminocarbonyl)-benzimidazole] | 20 | 31.6 | – | – | – | 5.0
O=C(O)c1cc(NC(=O)[C@H](Cc2ccccc2F)NC(=O)c2cc3cc[nH]c3cc2C(=O)NCC23CC4CC(CC(C4)C2)C3)cc(C(=O)O)c1 [Example 87, 5-(1S-(3,5-dicarboxyphenylaminocarbonyl)-2-(2-fluorophenyl)ethylaminocarbonyl)-6-(1-adamantanemethylaminocarbonyl)-indole] | 0.251 | 0.794 | 3160 | – | – | –
O=C(O)c1cc(NC(=O)[C@H](Cc2ccccc2F)NC(=O)c2cc3[nH]ccc3cc2C(=O)NCC23CC4CC(CC(C4)C2)C3)cc(C(=O)O)c1 [Example 88, 6-(1S-(3,5-dicarboxyphenylaminocarbonyl)-2-(2-25 fluorophenyl)ethylaminocarbonyl)-5-(1-adamantaneinetnyl-aminocarbonyl)-indole] | 2.51 | 5.01 | 2510 | – | – | –
O=C(O)c1cccc(NC(=O)[C@H](Cc2ccccc2)NC(=O)c2cc3cc[nH]c3cc2C(=O)NCC23CC4CC(CC(C4)C2)C3)c1 [Example 90, 5-(1S-(3-carboxyphenylaminocarbonyl)-2-phenylethylaminocarbonyl)-6-(1-adamantanemethylaminocarbonyl)-indole] | – | – | – | 8.0 | 8.2 | 5.3
O=C(O)CNC(=O)[C@@H](Cc1ccccc1)NC(=O)c1cc2cc[nH]c2cc1C(=O)NCC12CC3CC(CC(C3)C1)C2 [Example 91, 5-(1R-(carboxymethylaminocarbonyl)-2-phenylethylaminocarbonyl)-6-(1-adamantanemethylaminocarbonyl)-indole] | – | – | – | 8.0 | 7.4 | 5.3
O=C(NCC12CC3CC(CC(C3)C1)C2)c1cc2[nH]ccc2cc1C(=O)N[C@@H](Cc1ccccc1)C(=O)Nc1cc(NS(=O)(=O)C(F)(F)F)cc(NS(=O)(=O)C(F)(F)F)c1 [Example 93, 5-(1S-(3,5-di-trifluoromethylsulphonylaminophenylaminocarbonyl)-2-phenylethylaminocarbonyl)-6-(1-adamantanemethylaminocarbonyl)-indole] | – | – | – | 7.7 | 8.1 | 5.6
CC(C)(C)NS(=O)(=O)c1cc(NC(=O)[C@H](Cc2ccccc2)NC(=O)c2cc3cc[nH]c3cc2C(=O)NCC23CC4CC(CC(C4)C2)C3)cc(S(=O)(=O)NC(C)(C)C)c1 [Example 95, 5-(1S-(3,5-di-tert-butylaminosulphonylphenylaminocarbonyl)-2-phenylethylaminocarbonyl)-6-(1-adamantanemethylaminocarbonyl)-indole] | – | – | – | 5.9 | 5.9 | 5.8
O=C(NCC12CC3CC(CC(C3)C1)C2)c1cc2[nH]ccc2cc1C(=O)N[C@@H](Cc1ccccc1)C(=O)Nc1cccc(-c2nn[nH]n2)c1 [Example 100, 5-(1S-(3-tetrazolylphenylaminocarbonyl)-2-phenylethylaminocarbonyl)-6-(1-adamantanemethylaminocarbonyl)-indole] | 31.6 | 12.6 | 398 | – | – | –
